{"source": "ChEMBL document CHEMBL1201862", "about": "“PubChem BioAssay data set” (2004)", "key": {"[1]": {"experiment": "inhibitors of intracellular T. cruzi replication, confirmation, NIH3T3 host cells, beta-gal luminescence (AID 2044);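 further: luminescent beta-galactosidase reporter signal from transgenic T. cruzi replicating inside host cells; inhibitors lower the luminescence signal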", "type": "functional, cell-based"}, "[2]": {"experiment": "cytotoxicity toward NIH3T3 fibroblasts, dose response, counter-screen, cell-based, ATP luminescence, mouse fibroblasts (AID 2010);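 further: cells exposed to compound for about 90 hours before reading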", "type": "functional"}, "[3]": {"target": "72 kDa type IV collagenase (Homo sapiens, UniProt P08253)", "experiment": "Dose Response validation of uHTS RPN11 inhibitor hits using a MMP-2 Fluorescence assay.", "type": "functional"}, "Prothrombin": {"target": "Prothrombin (Bos taurus, UniProt P00735)", "experiment": "thrombin inhibition, dose response, biochemical, fluorescence polarization, uHTS hits (AID 602369)", "type": "functional"}, "[4]": {"target": "26S proteasome non-ATPase regulatory subunit 14 (Homo sapiens, UniProt O00487)", "sequence (O00487 whole entry)": "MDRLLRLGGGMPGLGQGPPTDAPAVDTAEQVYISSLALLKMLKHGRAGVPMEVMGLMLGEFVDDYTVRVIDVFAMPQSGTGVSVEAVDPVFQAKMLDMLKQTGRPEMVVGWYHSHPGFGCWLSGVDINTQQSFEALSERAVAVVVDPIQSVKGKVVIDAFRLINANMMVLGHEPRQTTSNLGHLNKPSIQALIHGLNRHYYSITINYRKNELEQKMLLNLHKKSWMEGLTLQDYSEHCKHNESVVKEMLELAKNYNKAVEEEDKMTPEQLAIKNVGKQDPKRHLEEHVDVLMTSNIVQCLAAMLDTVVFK", "experiment": "inhibition of proteasome subunit RPN11 – biochemical, fluorescence polarization, uHTS hits, confirmation (AID 602368)", "type": "functional"}, "[5]": {"system": "Streptococcus sp. 'group A'", "experiment": "growth inhibition of control SK(-) GAS strain, dose response, counter-screen for streptokinase expression inhibitor project, luminescence, kanamycin, BacTiterGlo, confirmation (AID 1900)", "type": "functional, organism-based"}, "Streptococcus": {"system": "Streptococcus", "experiment": "Group A Streptococcus viability loss, dose response, counter-screen for streptokinase expression inhibitor project, luminescence, BacTiterGlo (AID 1915);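 further: potency for reduction of bacterial viability or growth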", "type": "functional, organism-based"}, "[6]": {"target": "T1, Low molecular weight phosphotyrosine protein phosphatase (Homo sapiens, UniProt P24666)", "T1 sequence (P24666 whole entry)": "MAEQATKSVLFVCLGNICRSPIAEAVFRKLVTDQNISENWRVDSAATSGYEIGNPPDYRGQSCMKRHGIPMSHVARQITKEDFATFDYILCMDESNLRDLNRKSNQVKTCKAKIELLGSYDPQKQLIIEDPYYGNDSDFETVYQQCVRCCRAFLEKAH", "type": "functional", "conditions": "read-out: IC50_Mean"}, "cells": {"experiment": "cells", "type": "functional"}, "[7]": {"target": "T2, Glycogen synthase kinase-3 alpha (Homo sapiens, UniProt P49840)", "T2 sequence (P49840 whole entry)": "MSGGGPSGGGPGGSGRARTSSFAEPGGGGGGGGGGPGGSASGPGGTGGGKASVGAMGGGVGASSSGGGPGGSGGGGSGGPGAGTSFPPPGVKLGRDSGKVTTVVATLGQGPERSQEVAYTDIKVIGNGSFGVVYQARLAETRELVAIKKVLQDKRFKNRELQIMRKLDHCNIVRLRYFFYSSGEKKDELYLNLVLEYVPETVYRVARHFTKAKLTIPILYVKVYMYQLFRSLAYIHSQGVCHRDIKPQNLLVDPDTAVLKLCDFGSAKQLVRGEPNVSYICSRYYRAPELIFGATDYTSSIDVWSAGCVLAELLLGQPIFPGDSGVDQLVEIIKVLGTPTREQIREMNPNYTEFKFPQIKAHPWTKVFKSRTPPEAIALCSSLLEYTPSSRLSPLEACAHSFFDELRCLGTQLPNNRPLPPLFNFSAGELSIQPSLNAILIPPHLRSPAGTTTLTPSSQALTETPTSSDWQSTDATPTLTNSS", "experiment": "Inhibition of Human GSK-3 alpha Activity Measured in Biochemical System Using Microfluidics - 2063-06_Inhibitor_Dose_DryPowder_Activity_Set2. [Related pubchem assays (depositor defined):AID2709]"}, "[8]": {"target": "T1, Low molecular weight phosphotyrosine protein phosphatase", "type": "functional", "conditions": "read-out: IC50_Mean", "remark": "listed apart in the source"}, "[9]": {"target": "Glycogen synthase kinase-3 beta (Homo sapiens, UniProt P49841)", "experiment": "Inhibition of Human GSK-3 beta Activity Measured in Biochemical System Using Microfluidics - 2063-05_Inhibitor_Dose_DryPowder_Activity_Set2. [Related pubchem assays (depositor defined):AID2709]"}, "[10]": {"target": "T3, High affinity choline transporter 1 (Homo sapiens, UniProt Q9GZV3)", "T3 sequence (Q9GZV3 whole entry)": "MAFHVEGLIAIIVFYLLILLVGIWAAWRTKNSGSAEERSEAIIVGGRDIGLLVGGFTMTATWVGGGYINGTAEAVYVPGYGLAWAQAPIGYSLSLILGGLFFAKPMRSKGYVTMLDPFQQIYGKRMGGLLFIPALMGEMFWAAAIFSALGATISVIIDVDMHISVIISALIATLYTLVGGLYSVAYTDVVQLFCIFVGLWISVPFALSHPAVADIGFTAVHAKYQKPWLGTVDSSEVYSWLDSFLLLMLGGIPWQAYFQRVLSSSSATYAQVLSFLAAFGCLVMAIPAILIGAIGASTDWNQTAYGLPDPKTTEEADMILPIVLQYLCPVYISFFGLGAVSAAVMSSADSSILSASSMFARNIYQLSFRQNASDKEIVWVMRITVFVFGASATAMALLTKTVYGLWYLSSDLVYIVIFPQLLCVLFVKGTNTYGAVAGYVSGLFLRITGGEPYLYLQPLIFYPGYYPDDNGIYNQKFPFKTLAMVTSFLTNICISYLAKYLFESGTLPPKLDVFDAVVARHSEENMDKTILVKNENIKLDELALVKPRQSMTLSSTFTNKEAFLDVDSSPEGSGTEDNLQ", "experiment": "CHT activators, dose response, cell-based, 10-point CRC, membrane potential dye (AID 602376)", "type": "functional"}, "[11]": {"target": "Sphingosine 1-phosphate receptor 2 (Homo sapiens, UniProt O95136)", "experiment": "Late-stage fluorescence-based dose-response cell-based counterscreen assay to identify agonists of the Sphingosine 1-Phosphate Receptor 3 (S1P3): Sphingosine 1-Phosphate Receptor 2 (S1P2) agonist assay.", "type": "functional"}, "[12]": {"target": "Sphingosine 1-phosphate receptor 4 (Homo sapiens, UniProt O95977)", "experiment": "Late-stage fluorescence-based dose-response cell-based counterscreen assay to identify agonists of the Sphingosine 1-Phosphate Receptor 3 (S1P3): Sphingosine 1-Phosphate Receptor 4 (S1P4) agonist assay.", "type": "functional"}, "[13]": {"target": "T4, DNA dC->dU-editing enzyme APOBEC-3G (Homo sapiens, UniProt Q9HC16)", "T4 sequence (Q9HC16 whole entry)": "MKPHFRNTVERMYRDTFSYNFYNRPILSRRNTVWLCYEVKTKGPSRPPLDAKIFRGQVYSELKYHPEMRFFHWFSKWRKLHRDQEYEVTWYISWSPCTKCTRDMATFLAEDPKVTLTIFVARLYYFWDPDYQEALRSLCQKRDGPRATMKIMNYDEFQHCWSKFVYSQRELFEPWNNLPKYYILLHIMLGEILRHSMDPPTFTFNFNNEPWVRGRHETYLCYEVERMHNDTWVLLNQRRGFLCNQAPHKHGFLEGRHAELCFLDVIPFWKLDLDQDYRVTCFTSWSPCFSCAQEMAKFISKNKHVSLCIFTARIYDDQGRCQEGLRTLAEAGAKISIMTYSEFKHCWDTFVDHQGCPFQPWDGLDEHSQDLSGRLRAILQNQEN", "experiment": "SAR analysis of small molecule inhibitors of APOBEC3G DNA Deaminase via a fluorescence-based single-stranded DNA deaminase assay - Set 2.", "type": "functional", "conditions": "read-out: IC50_Mean"}, "[14]": {"target": "T5, DNA dC->dU-editing enzyme APOBEC-3A (Homo sapiens, UniProt P31941)", "T5 sequence (P31941 whole entry)": "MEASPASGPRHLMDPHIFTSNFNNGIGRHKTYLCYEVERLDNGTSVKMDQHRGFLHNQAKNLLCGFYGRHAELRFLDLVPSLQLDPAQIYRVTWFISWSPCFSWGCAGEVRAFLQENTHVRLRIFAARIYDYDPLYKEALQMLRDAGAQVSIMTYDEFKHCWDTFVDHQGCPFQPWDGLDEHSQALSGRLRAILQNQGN", "experiment": "SAR analysis of small molecule inhibitors of APOBEC3A DNA Deaminase via a fluorescence-based single-stranded DNA deaminase assay - Set 2.", "type": "functional", "conditions": "read-out: IC50_Mean"}, "[15]": {"target": "T5, DNA dC->dU-editing enzyme APOBEC-3A", "experiment": "SAR analysis of small molecule inhibitors of APOBEC3A DNA Deaminase via a fluorescence-based single-stranded DNA deaminase assay.", "type": "functional", "conditions": "read-out: IC50_Mean"}, "[16]": {"target": "T4, DNA dC->dU-editing enzyme APOBEC-3G", "experiment": "APOBEC3G deaminase inhibitors, SAR follow-up, biochemical, fluorescence, single-stranded DNA substrate (AID 602136)", "type": "functional", "conditions": "read-out: IC50_Mean"}, "[17]": {"target": "Dual specificity protein kinase CLK2 (Homo sapiens, UniProt P49760)", "type": "functional"}, "[18]": {"target": "Fibroblast growth factor receptor 1 (Homo sapiens, UniProt P11362)", "type": "functional"}, "LIM domain kinase 1": {"target": "LIM domain kinase 1 (Homo sapiens, UniProt P53667)", "experiment": "Navigating the Kinome. Panel member name: LIMK1", "type": "functional"}, "[19]": {"target": "Mitogen-activated protein kinase 14 (Homo sapiens, UniProt Q16539)", "sequence (Q16539 whole entry)": "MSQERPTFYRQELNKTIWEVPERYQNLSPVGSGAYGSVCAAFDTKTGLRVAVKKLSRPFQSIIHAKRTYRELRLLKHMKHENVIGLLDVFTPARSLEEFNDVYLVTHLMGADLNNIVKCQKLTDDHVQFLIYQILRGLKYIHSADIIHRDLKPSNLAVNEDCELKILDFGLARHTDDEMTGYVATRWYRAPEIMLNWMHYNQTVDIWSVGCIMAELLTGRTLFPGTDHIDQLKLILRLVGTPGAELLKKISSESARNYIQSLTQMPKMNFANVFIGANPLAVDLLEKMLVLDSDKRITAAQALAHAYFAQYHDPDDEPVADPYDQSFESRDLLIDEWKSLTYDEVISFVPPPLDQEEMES", "type": "functional"}, "[20]": {"target": "Cyclin-dependent kinase 7 (Homo sapiens, UniProt P50613)", "type": "functional"}, "[21]": {"target": "T2, Glycogen synthase kinase-3 alpha", "type": "functional"}, "[22]": {"target": "Calcium/calmodulin-dependent protein kinase type II subunit alpha (Homo sapiens, UniProt Q9UQM7)", "experiment": "Navigating the Kinome. Panel member name: CAMK2A", "type": "functional"}, "[23]": {"target": "Tyrosine-protein kinase JAK3 (Homo sapiens, UniProt P52333)", "type": "functional"}, "[24]": {"target": "Dual specificity tyrosine-phosphorylation-regulated kinase 1A (Homo sapiens, UniProt Q13627)", "type": "functional"}, "[25]": {"target": "Serine/threonine-protein kinase PAK 4 (Homo sapiens, UniProt O96013)", "sequence (O96013 whole entry)": "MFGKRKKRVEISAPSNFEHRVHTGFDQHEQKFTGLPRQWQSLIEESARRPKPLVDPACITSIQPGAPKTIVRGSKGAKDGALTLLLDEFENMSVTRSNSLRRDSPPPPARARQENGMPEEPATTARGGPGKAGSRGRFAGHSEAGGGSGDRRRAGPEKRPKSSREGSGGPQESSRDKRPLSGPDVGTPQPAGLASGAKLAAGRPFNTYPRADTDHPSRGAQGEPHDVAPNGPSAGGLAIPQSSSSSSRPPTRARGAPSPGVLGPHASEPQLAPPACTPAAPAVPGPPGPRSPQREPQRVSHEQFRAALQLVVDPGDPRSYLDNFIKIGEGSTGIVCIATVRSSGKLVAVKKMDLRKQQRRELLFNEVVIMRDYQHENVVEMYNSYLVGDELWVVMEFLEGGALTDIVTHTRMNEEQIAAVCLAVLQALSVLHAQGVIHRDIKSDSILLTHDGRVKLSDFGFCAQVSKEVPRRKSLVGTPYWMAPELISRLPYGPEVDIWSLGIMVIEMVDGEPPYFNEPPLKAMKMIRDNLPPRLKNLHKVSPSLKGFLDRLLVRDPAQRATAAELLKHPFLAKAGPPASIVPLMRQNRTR", "type": "functional"}, "[26]": {"target": "Dual specificity tyrosine-phosphorylation-regulated kinase 1B (Homo sapiens, UniProt Q9Y463)", "sequence (Q9Y463 whole entry)": "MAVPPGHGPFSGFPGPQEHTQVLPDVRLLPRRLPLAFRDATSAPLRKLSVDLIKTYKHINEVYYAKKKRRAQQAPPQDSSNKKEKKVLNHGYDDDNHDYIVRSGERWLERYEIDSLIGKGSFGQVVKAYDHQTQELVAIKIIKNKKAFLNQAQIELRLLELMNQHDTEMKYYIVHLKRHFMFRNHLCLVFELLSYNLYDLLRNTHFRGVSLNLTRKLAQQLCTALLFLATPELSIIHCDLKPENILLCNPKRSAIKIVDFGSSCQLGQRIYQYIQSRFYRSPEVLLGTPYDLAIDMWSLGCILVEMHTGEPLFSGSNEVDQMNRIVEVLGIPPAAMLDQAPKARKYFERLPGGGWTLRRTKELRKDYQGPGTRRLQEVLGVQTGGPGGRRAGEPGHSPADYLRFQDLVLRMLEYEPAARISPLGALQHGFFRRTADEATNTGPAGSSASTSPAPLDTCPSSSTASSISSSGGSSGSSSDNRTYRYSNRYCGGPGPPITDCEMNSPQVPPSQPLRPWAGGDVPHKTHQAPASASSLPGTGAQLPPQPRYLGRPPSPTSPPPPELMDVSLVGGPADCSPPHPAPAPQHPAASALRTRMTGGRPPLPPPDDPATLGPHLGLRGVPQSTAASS", "experiment": "Navigating the Kinome. Panel member name: DYRK1B", "type": "functional"}, "Aurora kinase B": {"target": "Aurora kinase B (Homo sapiens, UniProt Q96GD4)", "sequence (Q96GD4 whole entry)": "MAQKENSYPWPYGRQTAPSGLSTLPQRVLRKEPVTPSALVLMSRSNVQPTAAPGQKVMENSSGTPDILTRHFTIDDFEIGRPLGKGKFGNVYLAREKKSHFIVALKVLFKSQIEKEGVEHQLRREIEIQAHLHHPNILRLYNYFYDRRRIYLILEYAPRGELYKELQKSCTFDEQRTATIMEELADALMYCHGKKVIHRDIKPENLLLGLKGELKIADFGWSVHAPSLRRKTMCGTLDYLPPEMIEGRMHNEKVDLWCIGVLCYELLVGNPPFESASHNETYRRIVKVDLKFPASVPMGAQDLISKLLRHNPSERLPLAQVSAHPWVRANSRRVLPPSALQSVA", "type": "functional"}, "Activin receptor type-1": {"target": "Activin receptor type-1 (Homo sapiens, UniProt Q04771)", "sequence (Q04771 whole entry)": "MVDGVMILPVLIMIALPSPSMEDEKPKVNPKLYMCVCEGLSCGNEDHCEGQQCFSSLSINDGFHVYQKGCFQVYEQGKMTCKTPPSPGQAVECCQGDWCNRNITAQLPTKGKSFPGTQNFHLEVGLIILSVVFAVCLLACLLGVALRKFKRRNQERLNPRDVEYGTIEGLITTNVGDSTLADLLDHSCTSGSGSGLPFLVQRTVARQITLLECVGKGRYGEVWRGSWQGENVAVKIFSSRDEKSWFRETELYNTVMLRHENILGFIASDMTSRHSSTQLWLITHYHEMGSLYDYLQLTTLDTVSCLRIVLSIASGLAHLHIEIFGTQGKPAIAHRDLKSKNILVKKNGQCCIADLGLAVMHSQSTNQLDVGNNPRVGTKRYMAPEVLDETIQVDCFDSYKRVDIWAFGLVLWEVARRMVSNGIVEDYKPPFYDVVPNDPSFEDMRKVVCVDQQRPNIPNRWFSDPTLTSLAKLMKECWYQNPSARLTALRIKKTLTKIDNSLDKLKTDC", "experiment": "Navigating the Kinome. Panel member name: ACVR1", "type": "functional"}, "[27]": {"target": "Casein kinase I isoform alpha (Homo sapiens, UniProt P48729)", "type": "functional"}, "[28]": {"target": "Serine/threonine-protein kinase D3 (Homo sapiens, UniProt O94806)", "type": "functional"}, "[29]": {"target": "G protein-coupled receptor kinase 5 (Homo sapiens, UniProt P34947)", "sequence (P34947 whole entry)": "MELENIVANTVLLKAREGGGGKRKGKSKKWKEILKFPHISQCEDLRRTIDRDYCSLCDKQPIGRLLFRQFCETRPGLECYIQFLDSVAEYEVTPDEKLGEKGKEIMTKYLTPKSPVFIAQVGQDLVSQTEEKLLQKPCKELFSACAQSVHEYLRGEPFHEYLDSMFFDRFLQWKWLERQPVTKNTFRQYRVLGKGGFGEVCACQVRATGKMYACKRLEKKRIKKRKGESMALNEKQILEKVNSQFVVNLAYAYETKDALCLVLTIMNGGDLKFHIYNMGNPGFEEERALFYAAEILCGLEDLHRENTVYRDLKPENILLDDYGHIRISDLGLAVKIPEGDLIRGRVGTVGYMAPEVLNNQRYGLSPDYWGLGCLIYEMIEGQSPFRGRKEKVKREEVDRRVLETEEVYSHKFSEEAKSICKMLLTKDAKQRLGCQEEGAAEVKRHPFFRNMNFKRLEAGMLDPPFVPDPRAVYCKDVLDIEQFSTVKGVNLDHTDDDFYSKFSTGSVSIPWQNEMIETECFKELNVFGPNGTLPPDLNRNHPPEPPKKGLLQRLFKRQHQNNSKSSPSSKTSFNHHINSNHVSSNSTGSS", "experiment": "Navigating the Kinome. Panel member name: GPRK5", "type": "functional"}, "[30]": {"target": "Dual specificity protein kinase CLK4 (Homo sapiens, UniProt Q9HAZ1)", "sequence (Q9HAZ1 whole entry)": "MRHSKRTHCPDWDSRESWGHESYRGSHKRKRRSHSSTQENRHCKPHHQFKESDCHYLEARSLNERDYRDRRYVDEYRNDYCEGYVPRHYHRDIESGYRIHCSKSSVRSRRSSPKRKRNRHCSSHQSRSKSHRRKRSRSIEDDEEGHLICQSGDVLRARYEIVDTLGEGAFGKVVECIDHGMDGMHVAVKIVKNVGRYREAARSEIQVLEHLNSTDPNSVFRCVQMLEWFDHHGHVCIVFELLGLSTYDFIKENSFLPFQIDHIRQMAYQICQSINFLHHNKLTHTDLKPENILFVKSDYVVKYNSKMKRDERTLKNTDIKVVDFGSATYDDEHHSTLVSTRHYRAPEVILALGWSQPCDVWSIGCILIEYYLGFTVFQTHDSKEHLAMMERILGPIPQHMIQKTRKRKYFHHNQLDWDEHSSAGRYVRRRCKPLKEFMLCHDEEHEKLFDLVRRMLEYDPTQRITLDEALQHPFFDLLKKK", "type": "functional"}}, "note": "Active and inactive are the calls of the source."}
{"smiles": "COc1ccc2oc(C(=O)Nc3nc(-c4ccccn4)cs3)c(C)c2c1", "values": [{"measurement": "EC50", "setting": "[1]", "value": "1.22 µM (active)"}, {"measurement": "EC50", "setting": "[2]", "value": "18.9 µM (active)"}, {"measurement": "IC50", "setting": "[3]", "value": "> 100 µM (inactive)"}, {"measurement": "IC50", "setting": "Prothrombin", "value": "69.4 µM (active)"}, {"measurement": "IC50", "setting": "[4]", "value": "34.1 µM (active)"}, {"measurement": "EC50", "setting": "[5]", "value": "0.915 µM (active)"}, {"measurement": "EC50", "setting": "Streptococcus", "value": "1.52 µM (active)"}]}
{"smiles": "c1ccc(-c2nc(NCCCn3ccnc3)c3ccccc3n2)cc1", "values": [{"measurement": "IC50", "setting": "[6]", "value": "13.9 µM (active)"}, {"measurement": "IC50", "setting": "cells", "value": "20.1 µM (active)"}, {"measurement": "AC50", "setting": "[7]", "value": "11.2 µM (active)"}, {"measurement": "IC50", "setting": "[8]", "value": "39 µM (inactive)"}, {"measurement": "AC50", "setting": "[9]", "value": "8.78 µM (active)"}]}
{"smiles": "COc1ccc(C)cc1Nc1n[n+](-c2ccccc2)c(-c2ccc(SC)cc2)s1", "values": [{"measurement": "EC50", "setting": "[10]", "value": "15.5 µM (active)"}]}
{"smiles": "CC(C)c1cc(C(=O)N(C2CCCCC2)C2CCCCC2)no1", "values": [{"measurement": "EC50", "setting": "[11]", "value": "> 50 µM (inactive)"}, {"measurement": "EC50", "setting": "[12]", "value": "> 50 µM (inactive)"}]}
{"smiles": "CCc1nc2sc3c(c2c2nnc(SC)n12)CCC(C)C3", "note": "(stereo unspecified)", "values": [{"measurement": "IC50", "setting": "[13]", "value": "> 99 µM (inactive)"}, {"measurement": "IC50", "setting": "[14]", "value": "> 99 µM (inactive)"}]}
{"smiles": "Cc1c(CNCc2cccc(Br)c2)c(C(=O)O)c(C)n1Cc1ccc(F)cc1", "values": [{"measurement": "IC50", "setting": "[15]", "value": "> 99 µM (inactive)"}, {"measurement": "IC50", "setting": "[16]", "value": "> 99 µM (inactive)"}]}
{"smiles": "Nc1ncnc2nc3ccccc3n12", "values": [{"measurement": "Ki", "setting": "[17]", "value": "39.8 µM (active)"}, {"measurement": "Ki", "setting": "[18]", "value": "> 79.4 µM (inactive)"}, {"measurement": "Ki", "setting": "LIM domain kinase 1", "value": "63.1 µM (active)"}, {"measurement": "Ki", "setting": "[19]", "value": "> 79.4 µM (inactive)"}, {"measurement": "Ki", "setting": "[20]", "value": "> 79.4 µM (inactive)"}, {"measurement": "Ki", "setting": "[21]", "value": "> 79.4 µM (inactive)"}, {"measurement": "Ki", "setting": "[22]", "value": "> 79.4 µM (inactive)"}, {"measurement": "Ki", "setting": "[23]", "value": "> 100 µM (inactive)"}, {"measurement": "Ki", "setting": "[24]", "value": "39.8 µM (active)"}, {"measurement": "Ki", "setting": "[25]", "value": "> 100 µM (inactive)"}, {"measurement": "Ki", "setting": "[26]", "value": "20 µM (active)"}, {"measurement": "Ki", "setting": "Aurora kinase B", "value": "> 79.4 µM (inactive)"}, {"measurement": "Ki", "setting": "Activin receptor type-1", "value": "> 79.4 µM (inactive)"}, {"measurement": "Ki", "setting": "[27]", "value": "20 µM (active)"}, {"measurement": "Ki", "setting": "[28]", "value": "> 79.4 µM (inactive)"}, {"measurement": "Ki", "setting": "[29]", "value": "> 79.4 µM (inactive)"}, {"measurement": "Ki", "setting": "[30]", "value": "7.94 µM (active)"}]}
